The target in one assay is GSK-3α (Homo sapiens, UniProt P49840). Briefly: ADP-Glo luminescent kinase assay. Format: biochemical. On the technique in general: ADP-Glo turns the ADP formed in a reaction into a luminescent signal.
The next assay deals with GSK-3β (Homo sapiens, UniProt P49841). Briefly: ADP-Glo luminescent kinase assay. Type of assay: biochemical.

As usually defined, the IC50 is the concentration needed to halve the response being measured.

Chain of GSK-3β (P49841 whole entry): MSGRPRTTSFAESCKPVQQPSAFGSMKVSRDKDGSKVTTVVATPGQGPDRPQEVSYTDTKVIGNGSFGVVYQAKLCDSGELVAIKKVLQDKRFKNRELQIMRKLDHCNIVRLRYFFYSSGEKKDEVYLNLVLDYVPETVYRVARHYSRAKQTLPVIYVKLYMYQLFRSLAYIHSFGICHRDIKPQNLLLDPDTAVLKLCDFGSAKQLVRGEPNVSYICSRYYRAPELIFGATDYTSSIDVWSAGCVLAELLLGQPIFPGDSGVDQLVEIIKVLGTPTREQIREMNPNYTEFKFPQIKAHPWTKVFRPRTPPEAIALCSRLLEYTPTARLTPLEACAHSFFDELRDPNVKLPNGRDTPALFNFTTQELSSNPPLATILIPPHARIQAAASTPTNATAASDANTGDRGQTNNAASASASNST
Chain of GSK-3α (P49840 2-483): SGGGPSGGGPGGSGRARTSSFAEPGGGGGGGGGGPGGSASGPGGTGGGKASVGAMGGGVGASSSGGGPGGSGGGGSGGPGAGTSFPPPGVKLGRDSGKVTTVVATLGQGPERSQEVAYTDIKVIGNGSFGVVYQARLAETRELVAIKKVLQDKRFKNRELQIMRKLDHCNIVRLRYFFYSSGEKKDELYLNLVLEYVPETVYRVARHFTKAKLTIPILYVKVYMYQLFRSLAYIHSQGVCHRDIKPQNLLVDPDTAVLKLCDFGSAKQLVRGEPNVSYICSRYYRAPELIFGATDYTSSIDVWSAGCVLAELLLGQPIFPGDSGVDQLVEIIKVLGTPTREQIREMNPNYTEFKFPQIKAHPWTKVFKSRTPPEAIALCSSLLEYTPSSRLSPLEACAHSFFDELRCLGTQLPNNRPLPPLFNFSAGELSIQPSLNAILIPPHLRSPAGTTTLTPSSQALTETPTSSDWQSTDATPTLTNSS

Consider `CC(C)=CCc1cc2c(cc1O)oc(=O)c1c3ccc(O)cc3oc21` [Psoralidin], for which the IC50 against GSK-3α is 2.27 µM; on GSK-3β, 4.24 µM.
On the same counts, the results for `O=C(/C=C/c1ccc(O)c(O)c1)O[C@H](Cc1ccc(O)c(O)c1)C(=O)O` [Rosmarinic acid] are 5.14 µM and 2.25 µM.

The values are drawn from publication doi:10.1101/2024.04.22.590490v1 (biorxiv, 2024).
